Measured values published in patent US20260166162A1, “CARBON CHAIN SUBSTANCE FOR REGULATING TRANSMEMBRANE TRANSPORT AND FLUIDITY OF CELL MEMBRANES, AND PREPARATION AND USE THEREOF” (priority 2022, published 2026).

System: Epithelial cells
Assay: Interaction of GFP-labelled complexes with cell membrane of epithelial cells (Example II-52, Table II-30)
Type: cell-based
Conditions: GFP-labelled complex, epithelial cells pretreated 4 hours, n=3
Protocol: The fatty acids were combined with water-soluble small molecules to form a complex, which were labeled with GFP fluorescence to detect cell membrane fluorescence. […] After the cells were stably adhered, the water-soluble fatty acid complexes in the following table were added to the cell culture medium. […] The medium with the drug was pipetted and replaced with normal DMEM medium. […] The green fluorescence intensity was analyzed by imageJ (see Table II-30, n=3).

NC(COC(=O)CCCCCCCCCCCCCCCCC(=O)O)C(=O)O (stereo not drawn) [Ser-octadecanedioic acid]
Mean fluorescence intensity (0 Hours after medium replaced): 136.2 ± 8.5 | Mean fluorescence intensity (2 Hours after medium replaced): 127.3 ± 1.6 | Mean fluorescence intensity (4 Hours after medium replaced): 102.3 ± 4.4 | Mean fluorescence intensity (8 Hours after medium replaced): 76.2 ± 4.6 | Mean fluorescence intensity (12 Hours after medium replaced): 53.9 ± 7.2 | Mean fluorescence intensity (24 Hours after medium replaced): 42.4 ± 5.5

CCCCCCC=CCCCCCCCC(=O)OCC1OC(O)C(O)C(O)C1O (stereo not drawn) [Glucose-c-9-hexadecenoic acid]
Mean fluorescence intensity (0 Hours after medium replaced): 126.3 ± 2.5 | Mean fluorescence intensity (2 Hours after medium replaced): 113.5 ± 8.2 | Mean fluorescence intensity (4 Hours after medium replaced): 105.5 ± 6.8 | Mean fluorescence intensity (8 Hours after medium replaced): 87.5 ± 6.8 | Mean fluorescence intensity (12 Hours after medium replaced): 64.3 ± 5.1 | Mean fluorescence intensity (24 Hours after medium replaced): 43.5 ± 5.0

CC/C=C\C/C=C\C/C=C\C/C=C\C/C=C\C/C=C\CCC(=O)OCC(O)C1OC(=O)C(O)=C1O (stereo not drawn) [Vc-DHA]
Mean fluorescence intensity (0 Hours after medium replaced): 126.3 ± 7.4 | Mean fluorescence intensity (2 Hours after medium replaced): 115.4 ± 5.2 | Mean fluorescence intensity (4 Hours after medium replaced): 109.8 ± 4.9 | Mean fluorescence intensity (8 Hours after medium replaced): 52.0 ± 6.1 | Mean fluorescence intensity (12 Hours after medium replaced): 42.0 ± 3.4 | Mean fluorescence intensity (24 Hours after medium replaced): 37.9 ± 4.6

NC(COC(=O)CCCCCCCCCCCCCCCCCCCCC(=O)O)C(=O)O (stereo not drawn) [Ser-docosanedioic acid]
Mean fluorescence intensity (0 Hours after medium replaced): 114.5 ± 3.3 | Mean fluorescence intensity (2 Hours after medium replaced): 101.4 ± 6.9 | Mean fluorescence intensity (4 Hours after medium replaced): 95.4 ± 5.5 | Mean fluorescence intensity (8 Hours after medium replaced): 74.4 ± 2.4 | Mean fluorescence intensity (12 Hours after medium replaced): 34.5 ± 5.5 | Mean fluorescence intensity (24 Hours after medium replaced): 20.4 ± 4.4

CCCC(=O)OC(C)C(N)C(=O)O (stereo not drawn) [Thr-n-butyric acid]
Mean fluorescence intensity (0 Hours after medium replaced): 126.4 ± 4.6 | Mean fluorescence intensity (2 Hours after medium replaced): 121.4 ± 4.6 | Mean fluorescence intensity (4 Hours after medium replaced): 115.0 ± 0.4 | Mean fluorescence intensity (8 Hours after medium replaced): 60.41 ± 3.4 | Mean fluorescence intensity (12 Hours after medium replaced): 34.91 ± 5.6 | Mean fluorescence intensity (24 Hours after medium replaced): 30.67 ± 4.5

NC(COC(=O)CCCCCCCCCCCCCCC(=O)O)C(=O)O (stereo not drawn) [Ser-hexadecanedioic acid]
Mean fluorescence intensity (0 Hours after medium replaced): 119.6 ± 9.4 | Mean fluorescence intensity (2 Hours after medium replaced): 116.2 ± 5.1 | Mean fluorescence intensity (4 Hours after medium replaced): 93.4 ± 5.3 | Mean fluorescence intensity (8 Hours after medium replaced): 63.9 ± 4.1 | Mean fluorescence intensity (12 Hours after medium replaced): 46.0 ± 3.6 | Mean fluorescence intensity (24 Hours after medium replaced): 37.6 ± 6.7

CCCCCCCCC(=O)OCC(O)C1OC(=O)C(O)=C1O (stereo not drawn) [Vc-nonanoic acid]
Mean fluorescence intensity (0 Hours after medium replaced): 129.5 ± 6.7 | Mean fluorescence intensity (2 Hours after medium replaced): 115.6 ± 6.8 | Mean fluorescence intensity (4 Hours after medium replaced): 93.7 ± 4.2 | Mean fluorescence intensity (8 Hours after medium replaced): 46.3 ± 5.7 | Mean fluorescence intensity (12 Hours after medium replaced): 36.4 ± 5.6 | Mean fluorescence intensity (24 Hours after medium replaced): 33.0 ± 7.0

NC(CCCCNC(=O)CCCCCCCCCCCC(=O)O)C(=O)O (stereo not drawn) [Lys-tridecanedioic acid]
Mean fluorescence intensity (0 Hours after medium replaced): 134.4 ± 5.7 | Mean fluorescence intensity (2 Hours after medium replaced): 125.0 ± 6.9 | Mean fluorescence intensity (4 Hours after medium replaced): 113.9 ± 4.2 | Mean fluorescence intensity (8 Hours after medium replaced): 64.3 ± 1.6 | Mean fluorescence intensity (12 Hours after medium replaced): 48.4 ± 6.8 | Mean fluorescence intensity (24 Hours after medium replaced): 42.0 ± 2.6

CCCCCCCCCCC(=O)OC(C)C(N)C(=O)O (stereo not drawn) [Thr-undecanoic acid]
Mean fluorescence intensity (0 Hours after medium replaced): 129.5 ± 7.6 | Mean fluorescence intensity (2 Hours after medium replaced): 123.5 ± 3.5 | Mean fluorescence intensity (4 Hours after medium replaced): 118.7 ± 5.7 | Mean fluorescence intensity (8 Hours after medium replaced): 43.6 ± 9.3 | Mean fluorescence intensity (12 Hours after medium replaced): 35.3 ± 4.0 | Mean fluorescence intensity (24 Hours after medium replaced): 24.6 ± 3.8

CCCCCCCCC/C=C/C(=O)OCC1OC(O)C(O)C(O)C1O (stereo not drawn) [Glucose-t-2-dodecenoic acid]
Mean fluorescence intensity (0 Hours after medium replaced): 129.3 ± 0.6 | Mean fluorescence intensity (2 Hours after medium replaced): 122.0 ± 6.6 | Mean fluorescence intensity (4 Hours after medium replaced): 109.6 ± 5.6 | Mean fluorescence intensity (8 Hours after medium replaced): 63.4 ± 6.0 | Mean fluorescence intensity (12 Hours after medium replaced): 45.7 ± 4.6 | Mean fluorescence intensity (24 Hours after medium replaced): 38.5 ± 8.2

CCCCCCCCCCCCCC(=O)OCC(O)C1OC(=O)C(O)=C1O (stereo not drawn) [Vc-tetradecanoic acid]
Mean fluorescence intensity (0 Hours after medium replaced): 115.4 ± 4.6 | Mean fluorescence intensity (2 Hours after medium replaced): 100.2 ± 3.7 | Mean fluorescence intensity (4 Hours after medium replaced): 87.2 ± 4.6 | Mean fluorescence intensity (8 Hours after medium replaced): 41.2 ± 9.4 | Mean fluorescence intensity (12 Hours after medium replaced): 33.6 ± 5.2 | Mean fluorescence intensity (24 Hours after medium replaced): 27.5 ± 7.3

CCC=CCC=CCC=CCC=CCC=CCCCC(=O)NCCCCC(N)C(=O)O (stereo not drawn) [Lys-EPA]
Mean fluorescence intensity (0 Hours after medium replaced): 123.3 ± 8.8 | Mean fluorescence intensity (2 Hours after medium replaced): 119.2 ± 3.7 | Mean fluorescence intensity (4 Hours after medium replaced): 109.4 ± 1.7 | Mean fluorescence intensity (8 Hours after medium replaced): 66.4 ± 4.7 | Mean fluorescence intensity (12 Hours after medium replaced): 39.4 ± 5.8 | Mean fluorescence intensity (24 Hours after medium replaced): 32.5 ± 4.5

NC(COC(=O)CCCCCCCCCCC(=O)O)C(=O)O (stereo not drawn) [Ser-dodecanedioic acid]
Mean fluorescence intensity (0 Hours after medium replaced): 127.3 ± 3.5 | Mean fluorescence intensity (2 Hours after medium replaced): 126.3 ± 5.2 | Mean fluorescence intensity (4 Hours after medium replaced): 118.3 ± 7.3 | Mean fluorescence intensity (8 Hours after medium replaced): 69.3 ± 8.4 | Mean fluorescence intensity (12 Hours after medium replaced): 59.3 ± 5.5 | Mean fluorescence intensity (24 Hours after medium replaced): 45.3 ± 1.6

CCCCCCCCCC(=O)OCC(N)C(=O)O (stereo not drawn) [Ser-n-decanoic acid]
Mean fluorescence intensity (0 Hours after medium replaced): 115.4 ± 4.4 | Mean fluorescence intensity (2 Hours after medium replaced): 113.3 ± 6.4 | Mean fluorescence intensity (4 Hours after medium replaced): 108.3 ± 4.4 | Mean fluorescence intensity (8 Hours after medium replaced): 75.5 ± 2.7 | Mean fluorescence intensity (12 Hours after medium replaced): 56.4 ± 2.4 | Mean fluorescence intensity (24 Hours after medium replaced): 39.5 ± 5.7

CC(OC(=O)CCCCCCC(=O)O)C(N)C(=O)O (stereo not drawn) [Thr-octanedioic acid]
Mean fluorescence intensity (0 Hours after medium replaced): 125.3 ± 4.2 | Mean fluorescence intensity (2 Hours after medium replaced): 122.4 ± 7.5 | Mean fluorescence intensity (4 Hours after medium replaced): 115.4 ± 6.8 | Mean fluorescence intensity (8 Hours after medium replaced): 55.4 ± 7.8 | Mean fluorescence intensity (12 Hours after medium replaced): 45.0 ± 6.3 | Mean fluorescence intensity (24 Hours after medium replaced): 35.3 ± 5.9

CCCCCCCC(=O)NCCCCC(N)C(=O)O (stereo not drawn) [Lys-n-octanoic acid]
Mean fluorescence intensity (0 Hours after medium replaced): 103.4 ± 3.1 | Mean fluorescence intensity (2 Hours after medium replaced): 99.3 ± 7.9 | Mean fluorescence intensity (4 Hours after medium replaced): 92.4 ± 7.7 | Mean fluorescence intensity (8 Hours after medium replaced): 45.4 ± 4.7 | Mean fluorescence intensity (12 Hours after medium replaced): 30.4 ± 7.5 | Mean fluorescence intensity (24 Hours after medium replaced): 24.2 ± 8.5

CCCCCCCCCCCCC(=O)OC(C)C(N)C(=O)O (stereo not drawn) [Thr-tridecaneoic acid]
Mean fluorescence intensity (0 Hours after medium replaced): 106.5 ± 6.4 | Mean fluorescence intensity (2 Hours after medium replaced): 104.3 ± 7.8 | Mean fluorescence intensity (4 Hours after medium replaced): 96.6 ± 2.6 | Mean fluorescence intensity (8 Hours after medium replaced): 53.5 ± 2.6 | Mean fluorescence intensity (12 Hours after medium replaced): 42.5 ± 4.2 | Mean fluorescence intensity (24 Hours after medium replaced): 39.0 ± 4.3

Nc1ncnc2c1ncn2[C@@H]1O[C@H](COP(=O)(O)O)[C@@H](O)[C@H]1O.O=C(O)/C=C/C(=O)O [Adenosine monophosphate-fumaric acid]
Mean fluorescence intensity (0 Hours after medium replaced): 125.1 ± 7.6 | Mean fluorescence intensity (2 Hours after medium replaced): 120.5 ± 7.4 | Mean fluorescence intensity (4 Hours after medium replaced): 113.3 ± 4.6 | Mean fluorescence intensity (8 Hours after medium replaced): 50.0 ± 2.4 | Mean fluorescence intensity (12 Hours after medium replaced): 35.8 ± 4.6 | Mean fluorescence intensity (24 Hours after medium replaced): 31.3 ± 4.4

CCCCCCCCCCCCCCCC(=O)OC(C)C(N)C(=O)O (stereo not drawn) [Thr-palmitic acid]
Mean fluorescence intensity (0 Hours after medium replaced): 123.3 ± 6.6 | Mean fluorescence intensity (2 Hours after medium replaced): 124.4 ± 7.5 | Mean fluorescence intensity (4 Hours after medium replaced): 119.5 ± 4.1 | Mean fluorescence intensity (8 Hours after medium replaced): 69.2 ± 7.5 | Mean fluorescence intensity (12 Hours after medium replaced): 45.3 ± 5.8 | Mean fluorescence intensity (24 Hours after medium replaced): 42.5 ± 5.7

CC=CC(=O)NCCCCC(N)C(=O)O (stereo not drawn) [Lys-crotonic acid]
Mean fluorescence intensity (0 Hours after medium replaced): 119.3 ± 3.4 | Mean fluorescence intensity (2 Hours after medium replaced): 120.0 ± 6.6 | Mean fluorescence intensity (4 Hours after medium replaced): 98.3 ± 5.5 | Mean fluorescence intensity (8 Hours after medium replaced): 55.9 ± 6.7 | Mean fluorescence intensity (12 Hours after medium replaced): 46.9 ± 3.6 | Mean fluorescence intensity (24 Hours after medium replaced): 40.4 ± 5.3

CCCCC/C=C/C(=O)OCC1OC(O)C(O)C(O)C1O (stereo not drawn) [Glucose-t-2-octenoic acid]
Mean fluorescence intensity (0 Hours after medium replaced): 99.4 ± 3.6 | Mean fluorescence intensity (2 Hours after medium replaced): 92.5 ± 4.0 | Mean fluorescence intensity (4 Hours after medium replaced): 61.4 ± 4.2 | Mean fluorescence intensity (8 Hours after medium replaced): 42.3 ± 3.3 | Mean fluorescence intensity (12 Hours after medium replaced): 36.4 ± 4.3 | Mean fluorescence intensity (24 Hours after medium replaced): 32.4 ± 6.6
